Literature values, collected in PMC10597649, “Effect of Astragali radix extract on pharmacokinetic behavior of dapagliflozin in healthy and type 2 diabetic rats” (Frontiers in Pharmacology, 2023).

Tested on: P-gp
Design: method as in Huang et al., 2012
Settings: ref Huang et al., 2012; cited from earlier work

Q: Which P-gp inhibition does the source give for `CC(=O)O[C@H]1[C@H](O[C@H]2CC[C@]34C[C@]35CC[C@]3(C)[C@@H]([C@@]6(C)CC[C@@H](C(C)(C)O)O6)[C@@H](O)C[C@@]3(C)[C@@H]5C[C@H](O[C@@H]3O[C@H](CO)[C@@H](O)[C@H](O)[C@H]3O)[C@H]4C2(C)C)OC[C@@H](O)[C@@H]1O` [Astragaloside II] here?
A: potent P-gp inhibitor
